According to ChEMBL document CHEMBL2413072, “Synthesis and in vitro anticancer studies of novel C-2 arylidene congeners of lantadenes” (2013):

How the values were obtained:
Format in all cases: functional
ACHN = assay: Growth inhibition of human ACHN cells by sulforhodamine B assay
786-0 = assay: Growth inhibition of human 786-0 cells by sulforhodamine B assay
[1] = Growth inhibition of human NCI-ADR-RES cells by sulforhodamine B assay
OVCAR-5 = assay: Growth inhibition of human OVCAR5 cells by sulforhodamine B assay
UO-31 = assay: Growth inhibition of human UO31 cells assessed as cell growth at 10^-4 M by sulforhodamine B assay; conditions: read-out: Activity
OVCAR-8 = assay: Growth inhibition of human OVCAR8 cells assessed as cell growth at 10^-4 M by sulforhodamine B assay; conditions: read-out: Activity
Malme-3M = assay: Growth inhibition of human MALME-3M cells assessed as cell growth at 10^-4 M by sulforhodamine B assay; conditions: read-out: Activity
LOX IMVI = assay: Growth inhibition of human LOXIMVI cells assessed as cell growth at 10^-4 M by sulforhodamine B assay; conditions: read-out: Activity
SF-539 = assay: Growth inhibition of human SF539 cells assessed as cell growth at 10^-4 M by sulforhodamine B assay; conditions: read-out: Activity
SW-620 [2] = assay: Growth inhibition of human SW620 cells assessed as cell growth at 10^-4 M by sulforhodamine B assay; conditions: read-out: Activity
COLO 205 = assay: Growth inhibition of human COLO205 cells assessed as cell growth at 10^-4 M by sulforhodamine B assay; conditions: read-out: Activity
[3] = Growth inhibition of human NCI-ADR-RES cells assessed as cell growth at 10^-6 M by sulforhodamine B assay; conditions: read-out: Activity
OVCAR-3 = assay: Growth inhibition of human OVCAR3 cells assessed as cell growth at 10^-6 M by sulforhodamine B assay; conditions: read-out: Activity
SK-MEL-28 = assay: Growth inhibition of human SK-MEL-28 cells assessed as cell growth at 10^-6 M by sulforhodamine B assay; conditions: read-out: Activity
SK-MEL-2 [4] = assay: Growth inhibition of human SK-MEL-2 cells assessed as cell growth at 10^-6 M by sulforhodamine B assay; conditions: read-out: Activity
SW-620 [5] = assay: Growth inhibition of human SW620 cells assessed as cell growth at 10^-6 M by sulforhodamine B assay; conditions: read-out: Activity
A549 = assay: Growth inhibition of human A549/ATCC cells assessed as cell growth at 10^-6 M by sulforhodamine B assay; conditions: read-out: Activity
MDA-MB-468 = assay: Growth inhibition of human MDA-MB-468 cells assessed as cell growth at 10^-7 M by sulforhodamine B assay; conditions: read-out: Activity
BT-549 = assay: Growth inhibition of human BT549 cells assessed as cell growth at 10^-7 M by sulforhodamine B assay; conditions: read-out: Activity
PC-3 = assay: Growth inhibition of human PC3 cells assessed as cell growth at 10^-7 M by sulforhodamine B assay; conditions: read-out: Activity
[6] = Growth inhibition of human NCI-ADR-RES cells assessed as cell growth at 10^-7 M by sulforhodamine B assay; conditions: read-out: Activity
MDA-MB-435 = assay: Growth inhibition of human MDA-MB-435 cells assessed as cell growth at 10^-7 M by sulforhodamine B assay; conditions: read-out: Activity
SK-MEL-2 [7] = assay: Growth inhibition of human SK-MEL-2 cells assessed as cell growth at 10^-7 M by sulforhodamine B assay; conditions: read-out: Activity
NCI-H322M = assay: Growth inhibition of human NCI-H322M cells assessed as cell growth at 10^-7 M by sulforhodamine B assay; conditions: read-out: Activity
SR = assay: Growth inhibition of human SR cells assessed as cell growth at 10^-7 M by sulforhodamine B assay; conditions: read-out: Activity
T47D = assay: Growth inhibition of human T47D cells assessed as cell growth at 10^-8 M by sulforhodamine B assay; conditions: read-out: Activity
A498 = assay: Growth inhibition of human A498 cells assessed as cell growth at 10^-8 M by sulforhodamine B assay; conditions: read-out: Activity
[8] = read-out: pLC50 (the source's name) (converted)
[9] = read-out: LC50 (the source's name)

SMILES: CC(C)=CC(=O)O[C@@H]1CC(C)(C)C[C@H]2C3=CC[C@@H]4[C@@]5(C)CC[C@H](O)C(C)(C)[C@@H]5CC[C@@]4(C)[C@]3(C)CC[C@@]12C(=O)O [Reduced Lantadene B]
- GI50 (ACHN; read-out: pGI50 (converted)): 2.95 µM
- CC50 (ACHN; [8]): 58.9 µM
- TGI (ACHN; read-out: pTGI (converted)): 20.4 µM
- GI50 (786-0; read-out: GI50): 3.06 µM
- CC50 (786-0; [9]): 50.7 µM
- TGI (786-0; read-out: TGI): 11.5 µM
- GI50 (786-0; read-out: pGI50 (converted)): 3.09 µM
- CC50 (786-0; [8]): 51.3 µM
- TGI (786-0; read-out: pTGI (converted)): 11.5 µM
- GI50 ([1]; read-out: GI50): 5.83 µM
- CC50 [1, 9]: > 100 µM
- TGI ([1]; read-out: TGI): 35.9 µM
- GI50 ([1]; read-out: pGI50 (converted)): 5.89 µM
- CC50 [1, 8]: > 100 µM
- TGI ([1]; read-out: pTGI (converted)): 36.3 µM
- GI50 (OVCAR-5; read-out: GI50): 15.9 µM
- CC50 (OVCAR-5; [9]): 98.9 µM
- TGI (OVCAR-5; read-out: TGI): 39.7 µM
- GI50 (OVCAR-5; read-out: pGI50 (converted)): 15.8 µM
- CC50 (OVCAR-5; [8]): 100 µM
- TGI (OVCAR-5; read-out: pTGI (converted)): 39.8 µM
- growth at 100 µM (UO-31): -87%
- growth at 100 µM (OVCAR-8): -40%
- growth at 100 µM (Malme-3M): -46%
- growth at 100 µM (LOX IMVI): -35%
- growth at 100 µM (SF-539): -38%
- growth at 100 µM (SW-620 [2]): -15%
- growth at 100 µM (COLO 205): -52%
- growth at 1 µM [3]: 90%
- growth at 1 µM (OVCAR-3): 86%
- growth at 1 µM (SK-MEL-28): 97%
- growth at 1 µM (SK-MEL-2 [4]): 107%
- growth at 1 µM (SW-620 [5]): 87%
- growth at 1 µM (A549): 34%
- growth at 0.1 µM (MDA-MB-468): 98%
- growth at 0.1 µM (BT-549): 98%
- growth at 0.1 µM (PC-3): 90%
- growth at 0.1 µM [6]: 99%
- growth at 0.1 µM (MDA-MB-435): 97%
- growth at 0.1 µM (SK-MEL-2 [7]): 95%
- growth at 0.1 µM (NCI-H322M): 89%
- growth at 0.1 µM (SR): 104%
- growth at 0.01 µM (T47D): 93%
- growth at 0.01 µM (A498): 84%
